Experimental data as given in patent US9474755B2, “GLP-1 receptor modulators” (Receptos, Inc., priority 2014, dated 2016).

These compounds were tested against T1, GLP-1R (Homo sapiens, UniProt P43220) (assay: EC20 GLP-1(9-36) PAM cAMP Assay: dose response of compound in the presence of fixed concentration of GLP-1(9-36)). Conditions: GLP-1R CRE-bla CHO-K1 cells, in presence of fixed concentration of GLP-1(9-36), 30 min at 37° C.
T1 construct: host or cells: CRE-bla CHO-K1
Type: cell-based
Procedure: EC20 GLP-1(9-36) PAM cAMP Assay: Dose Response of Compound in the Presence of Fixed Concentration of GLP-1 (9-36).
GLP-1R CRE-bla CHO-K1 cells cultured in growth medium (DMEM-High glucose, 10% dialyzed FBS, 0.1 mM NEAA, 25 mM Hepes, 100 U/mL penicillin/100 μg/mL streptomycin, 5 μg/mL Blasticidin, 600 μg/mL Hygromycin) were trypsinized and plated in suspension into 384 well white flat bottom plates at 5000 cells/well in 12 μL assay buffer (Hanks Balanced Salt solution, 10 mM Hepes, 0.1% BSA, 10 pH 7.4). A 5× compound dose response curve (12-point) was generated in assay buffer containing 1.5 mM IBMX, 4% DMSO. GLP-1(9-36) was diluted to 4.2 μM in assay buffer containing 1.5 mM IBMX and 4% DMSO. The 5× compound dose response was added (3 μL), followed by 0.5 μL of GLP-1(9-36) and cells were incubated for 30 min at 37° C. Direct detection of cAMP was carried out using DiscoveRx HitHunter cAMP kit according to manufacturer's instructions and luminescence was read using a SpectraMax M5 plate reader. Luminescence was converted to total cAMP using a cAMP standard curve and data was analyzed by non-linear regression to determine the EC50 and Emax.

T1 sequence (P43220 24-463): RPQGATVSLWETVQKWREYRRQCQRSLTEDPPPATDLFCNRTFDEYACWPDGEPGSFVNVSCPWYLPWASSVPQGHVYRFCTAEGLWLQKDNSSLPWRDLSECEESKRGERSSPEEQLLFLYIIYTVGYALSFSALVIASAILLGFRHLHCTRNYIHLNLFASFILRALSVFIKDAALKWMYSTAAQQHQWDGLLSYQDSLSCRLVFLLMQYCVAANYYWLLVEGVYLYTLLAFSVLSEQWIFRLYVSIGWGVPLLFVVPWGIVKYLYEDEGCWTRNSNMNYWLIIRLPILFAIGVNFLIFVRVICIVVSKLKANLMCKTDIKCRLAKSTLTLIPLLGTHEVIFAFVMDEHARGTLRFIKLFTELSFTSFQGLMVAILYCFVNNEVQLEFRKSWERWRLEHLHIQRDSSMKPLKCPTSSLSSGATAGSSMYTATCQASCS
T1 sequence (P01275 100-127 partner limits assumed): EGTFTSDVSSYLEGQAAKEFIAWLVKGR

EC50	SMILES
5000 to 10000 nM	CCCC1CCC(C2CCC(c3cnc(-c4ccc(C[C@H](NC(=O)c5ccc(C(C)(C)C)nc5)C(=O)N5CC(C(=O)O)C5)cc4)nc3)CC2)CC1 (some centres unmarked) [Compound 28]
< 500 nM	CC(C)(C)c1ccc(C(=O)N[C@@H](Cc2ccc(-c3ncc(C4=CCC(C5CCCCC5)CC4)cn3)cc2)C(=O)N2CC(C(=O)O)C2)s1 (some centres unmarked) [Compound 77]
< 500 nM	CCC[C@H]1CC[C@H](C2CC=C(c3cnc(-c4ccc(C[C@H](NC(=O)c5ccc(C6CC6)s5)C(=O)N5CC(C(=O)O)C5)cc4)nc3)CC2)CC1 (some centres unmarked) [Compound 117]
2500 to 5000 nM	C[C@@H](NC(=O)[C@H](Cc1ccc(-c2ncc(C3=CCC(NC(=O)OC(C)(C)C)CC3)cn2)cc1)NC(=O)c1ccc(C(C)(C)C)s1)C(=O)O (some centres unmarked) [Compound 64]
< 500 nM	CCCC1CCC(C2CC=C(c3cnc(-c4ccc(C[C@H](NC(=O)c5ccc(CC)cc5)C(=O)N5CC(C(=O)O)C5)cc4)nc3)CC2)CC1 (some centres unmarked) [Compound 21]
5000 to 10000 nM	CCCCCC1CCC(C2CC=C(c3cnc(-c4ccc(C[C@H](NC(=O)c5ccc(C(C)(C)C)s5)C(=O)N[C@H](C)C(=O)O)cc4)nc3)CC2)CC1 (some centres unmarked) [Compound 2]
500 to 2500 nM	COC1CCC(C2CC=C(c3cnc(-c4ccc(C[C@H](NC(=O)c5ccc(C(C)(C)C)s5)C(=O)N5CC(C(=O)O)C5)cc4)nc3)CC2)CC1 (some centres unmarked) [Compound 48]
< 500 nM	CCO[C@H]1CC[C@H](C2CC=C(c3cnc(-c4ccc(C[C@H](NC(=O)c5ccc(C(C)(C)C)s5)C(=O)N5CC(C(=O)O)C5)cc4)nc3)CC2)CC1 (some centres unmarked) [Compound 84]
< 500 nM	CC(C)(C)c1ccc(C(=O)N[C@@H](Cc2ccc(-c3ncc(C4=CCC([C@H]5CC[C@H](C)CC5)CC4)cn3)cc2)C(=O)NCCC(=O)O)s1 (some centres unmarked) [Compound 113]
500 to 2500 nM	CCCC1CCC(C2CC=C(c3cnc(-c4ccc(C[C@H](NC(=O)c5ccc(C(C)=O)cc5)C(=O)N5CC(C(=O)O)C5)cc4)nc3)CC2)CC1 (some centres unmarked) [Compound 30]
< 500 nM	CC[C@H]1CC[C@H](C2CC=C(c3cnc(-c4ccc(C[C@H](NC(=O)c5ccc(C(C)(C)C)s5)C(=O)NCCC(=O)O)cc4)nc3)CC2)CC1 (some centres unmarked) [Compound 107]
500 to 2500 nM	CCCC1CCC(C2CC=C(c3cnc(-c4ccc(C[C@H](NC(=O)c5cnn(C(C)(C)C)c5)C(=O)N5CC(C(=O)O)C5)cc4)nc3)CC2)CC1 (some centres unmarked) [Compound 19]
< 500 nM	CCCc1ccc(C2CC=C(c3cnc(-c4ccc(C[C@H](NC(=O)c5ccc(C(C)(C)C)s5)C(=O)N5CC(C(=O)O)C5)cc4)nc3)CC2)cc1 (some centres unmarked) [Compound 47]
< 500 nM	CCCC1CCC(C2CC=C(c3cnc(-c4ccc(C[C@H](NC(=O)c5ccc(C(C)(C)C)s5)C(=O)NCCC(=O)O)cc4)nc3)CC2)CC1 (some centres unmarked) [Compound 71]
500 to 2500 nM	CCCC1CCC(C2CC=C(c3cnc(-c4ccc(C[C@H](NC(=O)c5ccc(C(C)(C)C)s5)C(=O)N[C@H](C(=O)O)C(C)C)cc4)nc3)CC2)CC1 (some centres unmarked) [Compound 75]
< 500 nM	COCC1CCC(C2CC=C(c3cnc(-c4ccc(CC(NC(=O)c5ccc(C(C)(C)C)s5)C(=O)N5CC(C(=O)O)C5)cc4)nc3)CC2)CC1 (centres unmarked) [Compound 88]
2500 to 5000 nM	CCCC1CCC(C2CC=C(c3cnc(-c4ccc(C[C@H](NC(=O)c5ccc(C(C)(C)C)s5)C(=O)N[C@@H](CCN)C(=O)O)cc4)nc3)CC2)CC1 (some centres unmarked) [Compound 72]
500 to 2500 nM	CC[C@H]1CC[C@H](C2CC=C(c3cnc(-c4ccc(C[C@H](NC(=O)c5ccc(CC(C)C)cc5)C(=O)N5CC(C(=O)O)C5)cc4)nc3)CC2)CC1 (some centres unmarked) [Compound 102]
500 to 2500 nM	CCCCC1CC=C(c2cnc(-c3ccc(C[C@H](NC(=O)c4ccc(C(C)(C)C)s4)C(=O)N4CC(C(=O)O)C4)cc3)nc2)CC1 (some centres unmarked) [Compound 45]
< 500 nM	CC(C)CC1CCC(C2CC=C(c3cnc(-c4ccc(C[C@H](NC(=O)c5ccc(C(C)(C)C)s5)C(=O)N5CC(C(=O)O)C5)cc4)nc3)CC2)CC1 (some centres unmarked) [Compound 86]
500 to 2500 nM	CCCC1CCC(C2CC=C(c3cnc(-c4ccc(C[C@H](NC(=O)c5ccc(C(C)(C)C)nc5)C(=O)N5CC(C(=O)O)C5)cc4)nc3)CC2)CC1 (some centres unmarked) [Compound 29]
< 500 nM	CCCC1CCC(C2CCC(c3cnc(-c4ccc(C[C@H](NC(=O)c5ccc(C(C)(C)C)s5)C(=O)N[C@H](C)C(=O)O)cc4)nc3)CC2)CC1 (some centres unmarked) [Compound 67]

EC50	SMILES
< 500 nM	C[C@@H](NC(=O)[C@H](Cc1ccc(-c2ncc(C3=CCC(c4ccccc4)CC3)cn2)cc1)NC(=O)c1ccc(C(C)(C)C)s1)C(=O)O (some centres unmarked) [Compound 10]
< 500 nM	CC(C)(C)c1ccc(C(=O)N[C@@H](Cc2ccc(-c3ncc(C4=CCC([C@H]5CC[C@H](C)CC5)CC4)cn3)cc2)C(=O)N2CC[C@H](C(=O)O)C2)s1 (some centres unmarked) [Compound 116]
500 to 2500 nM	CC[C@H]1CC[C@H](C2CCC(c3cnc(-c4ccc(C[C@H](NC(=O)c5ccc(C(C)(C)C)s5)C(=O)N5CC(C(=O)O)C5)cc4)nc3)CC2)CC1 (some centres unmarked) [Compound 125]
500 to 2500 nM	CC(C)(C)c1ccc(C(=O)N[C@@H](Cc2ccc(-c3ncc(C4=CCC([C@H]5CC[C@H](C)CC5)CC4)cn3)cc2)C(=O)NCC2CCNC2)s1 (some centres unmarked) [Compound 114]
< 500 nM	CCc1ccc(C(=O)N[C@@H](Cc2ccc(-c3ncc(C4=CCC([C@H]5CC[C@H](C)CC5)CC4)cn3)cc2)C(=O)N2CC(C(=O)O)C2)s1 (some centres unmarked) [Compound 91]
< 500 nM	CCCC1CCC(C2CC=C(c3cnc(-c4ccc(C[C@H](NC(=O)c5ccc(C(C)(C)C)s5)C(=O)N[C@H](C)C(=O)O)cc4)nc3)CC2)CC1 (stereo partly drawn) [Compound 1, ((2S)-2-(5-(tert-butyl)thiophene-2-carboxamido)-3-(4-(5-(4′-propyl-[1,1′-bi(cyclohexan)]-3-en-4-yl)pyrimidin-2-yl)phenyl)propanoyl)-D-alanine]
< 500 nM	CCCC1CCC(C2CC=C(c3cnc(-c4ccc(C[C@H](NC(=O)c5ccc(C(C)(C)C)s5)C(=O)N5CCC[C@H]5C(=O)O)cc4)nc3)CC2)CC1 (some centres unmarked) [Compound 8]
< 500 nM	CCCC1CCC(C2CC=C(c3cnc(-c4ccc(C[C@H](NC(=O)c5ccc(CC(C)C)cc5)C(=O)N5CC(C(=O)O)C5)cc4)nc3)CC2)CC1 (some centres unmarked) [Compound 23]
500 to 2500 nM	CC(C)(C)c1ccc(C(=O)N[C@@H](Cc2ccc(-c3ncc(C4=CCC(C5CCCCC5)CC4)cn3)cc2)C(=O)O)s1 (some centres unmarked) [Compound 120]
500 to 2500 nM	CCCC1CCC(C2CC=C(c3cnc(-c4ccc(C[C@@H](NC(=O)c5ccc(C(C)(C)C)s5)C(=O)N5CC(C(=O)O)C5)cc4)nc3)CC2)CC1 (some centres unmarked) [Compound 124]
500 to 2500 nM	CCCCCC1CCC(C2CC=C(c3cnc(-c4ccc(C[C@H](NC(=O)c5ccc(C(C)(C)C)s5)C(=O)N5CCC[C@H]5C(=O)O)cc4)nc3)CC2)CC1 (some centres unmarked) [Compound 5]
< 500 nM	CC[C@H]1CC[C@H](C2CC=C(c3cnc(-c4ccc(C[C@H](NC(=O)c5ccc(C(C)(C)C)s5)C(=O)N5CC[C@H](C(=O)O)C5)cc4)nc3)CC2)CC1 (stereo partly drawn) [Compound 110, (S)-1-((S)-2-(5-(tert-butyl)thiophene-2-carboxamido)-3-(4-(5-((1RS,1′r,4′RS)-4′-ethyl-[1,1′-bi(cyclohexan)]-3-en-4-yl)pyrimidin-2-yl)phenyl)propanoyl)pyrrolidine-3-carboxylic acid]
500 to 2500 nM	C[C@@H](NC(=O)[C@H](Cc1ccc(-c2ncc(C3=CCC(C)(C)CC3)cn2)cc1)NC(=O)c1ccc(C(C)(C)C)s1)C(=O)O [Compound 57]
500 to 2500 nM	CC[C@H]1CC[C@H](C2CC=C(c3cnc(-c4ccc(C[C@H](NC(=O)c5ccc(C(C)(C)C)s5)C(=O)O)cc4)nc3)CC2)CC1 (some centres unmarked) [Compound 119]
< 500 nM	CC[C@H]1CC[C@H](C2CC=C(c3cnc(-c4ccc(C[C@H](NC(=O)c5ccc(C(F)(F)F)s5)C(=O)N5CC(C(=O)O)C5)cc4)nc3)CC2)CC1 (some centres unmarked) [Compound 98]
< 500 nM	CCCC1CCC(C2CC=C(c3cnc(-c4ccc(C[C@H](NC(=O)c5ccc(C(C)(C)C)s5)C(=O)N5CC(C(=O)O)C5)cc4)nc3)CC2)CC1 (mixture of isomers) [Compound 6, 1-((2S)-2-(5-(tert-butyl)thiophene-2-carboxamido)-3-(4-(5-(4′-propyl-[1,1′-bi(cyclohexan)]-3-en-4-yl)pyrimidin-2-yl)phenyl)propanoyl)azetidine-3-carboxylic acid]
500 to 2500 nM	C[C@@H](NC(=O)[C@H](Cc1ccc(-c2ncc(C3=CCC(C(F)(F)F)CC3)cn2)cc1)NC(=O)c1ccc(C(C)(C)C)s1)C(=O)O (some centres unmarked) [Compound 65]
5000 to 10000 nM	C[C@@H](NC(=O)[C@H](Cc1ccc(-c2ncc(C3=CCCCC3)cn2)cc1)NC(=O)c1ccc(C(C)(C)C)s1)C(=O)O [Compound 54]
< 500 nM	CC(C)(C)c1ccc(C(=O)N[C@@H](Cc2ccc(-c3ncc(C4=CCC([C@H]5CC[C@H](C)CC5)CC4)cn3)cc2)C(=O)NS(C)(=O)=O)s1 (some centres unmarked) [Compound 115]
< 500 nM	CCC[C@H]1CC[C@H](C2CCC(c3cnc(-c4ccc(C[C@H](NC(=O)c5ccc(C(C)(C)C)s5)C(=O)N5CC(C(=O)O)C5)cc4)nc3)=C(C)C2)CC1 (some centres unmarked) [Compound 89]
500 to 2500 nM	CCCC1CC=C(c2cnc(-c3ccc(C[C@H](NC(=O)c4ccc(C(C)(C)C)s4)C(=O)N4CC(C(=O)O)C4)cc3)nc2)CC1 (some centres unmarked) [Compound 39]
< 500 nM	CC[C@H]1CC[C@H](C2CC=C(c3cnc(-c4ccc(C[C@H](NC(=O)c5ccc(C(C)(C)C)s5)C(=O)N[C@H](C)C(=O)O)cc4)nc3)CC2)CC1 (some centres unmarked) [Compound 106]
